# Results reported in patent publication US8012935B2, “Synthetic peptides and methods for treating cancer invasion and metastasis” (priority 2002, dated 2011).
# Assays:
# [1] = test system: human melanoma cells A2058; experiment: MATRIGEL invasion and migration by melanoma cells A2058; type: cell-based
# Description: The inhibitory effects of these oligopeptides on the MATRIGEL™ invasion and migration through the MATRIGEL™ membrane by various cancer cells were evaluated using “Improved MATRIGEL™ Invasion Chamber” (Becton Dickinson, USA).
# (§1) The studies were conducted using “Improved MATRIGEL™ Invasion Chambers” (Becton Dickinson, USA).
# (§2) In studies with human melanoma cells, human fibroblasts-NHDF (Clonetics) were seeded on MATRIGEL™ inserts and allowed to reach confluence. This was done to closely simulate in vivo conditions surrounding cancer cells in the body. Human melanoma cells A2058 were then seeded on the insert. Conditioned media from the fibroblast culture supplemented with various levels of chosen oligopeptide were added to the chamber. The system was incubated for about 24 hours. At the end of the period the cells on the upper surface of the insert were wiped off. The cells that had invaded the MATRIGEL™ membrane and had migrated to the lower surface of the insert were stained with “quick stain” and were counted under the microscope. […] The inhibitory activity of the control was considered as “0”. The media from invasion assays were saved for zymogram studies.
# [2] = test system: human breast cancer cells MCF7; experiment: MATRIGEL invasion and migration by breast cancer cells MCF7; type: cell-based; settings: for inhibition of MATRIGEL invasion: MCF7
# Description: as §1, §2
# (§3) In studies with human breast cancer cells MCF7 the procedure was essentially similar to that used for melanoma cells, except that MRC5 (ATCC) fibroblasts were used in place of NHDF.
# [3] = test system: MMP-2 secreted by the cancer cells; experiment: Zymogram studies of media from invasion assays; type: cell-based, human; settings: zymogram gels
# Description: as §2
# The media (25-30 μl) from various wells in invasion studies were applied to NOVEX® zymogram gels (Invitrogen). The gels were developed and stained as recommended by the manufacturer. The matrix metalloproteinases (MMPs) were identified on the basis of their known molecular weights.
# [4] = test system: human breast cancer cells MDA-MB 231; experiment: MATRIGEL invasion by breast cancer cells MDA-MB 231; type: cell-based; settings: 150 μM
# Description: as §1, §2, §3
# In studies with human breast cancer cells MDA-MB 231 the fibroblast-MRC5 cells were plated in the wells. The rest of the procedure remained the same as in studies with MCF7 cells.
# [5] = comparison of oligopeptides (FIG. 2), concentration not given, about 24 hours
sequence,measurement,setting,value
LPPDVQRVD (listed as Homo sapiens),inhibition of MATRIGEL invasion,[1]; [5],about 20%
GDVAPKTDKE (listed as Homo sapiens),inhibition of MATRIGEL invasion,[1]; 100 μM concentration,did not show any activity
TMRKPRCGNPDVAN (listed as Homo sapiens) [reference compound],inhibition of MATRIGEL invasion,[1]; [5],about 11%
PRKPKWDK (listed as Homo sapiens) [synthetic oligopeptide corresponding to amino acids 85 to 92 of MMP-2],inhibition of MATRIGEL invasion,[2]; 150 μM (FIG. 4),about 70%
same,inhibition of MATRIGEL invasion,[2]; 200 μM (FIG. 4),about 90%
same,inhibition of the invasion of cancer cells,"[2]; summary statement, cell line and concentration not stated",about 90%
same,inhibitory effect on the amount of MMP-2 secreted,[3],did not show any inhibitory effect
same,inhibition of MATRIGEL invasion,[1]; 50 μM (FIG. 3),about 37%
same,inhibition of MATRIGEL invasion,[1]; 100 μM concentration,63%
same,inhibition of MATRIGEL invasion,[1]; 150 μM (FIG. 3),73%
same,inhibition of MATRIGEL invasion,[1]; [5],73%
same,inhibition of MATRIGEL invasion,[4],about 94%
